Measured values taken from patent US12115176B2, “Methods and compositions relating to ClbP inhibition” (PRESIDENT AND FELLOWS OF HARVARD COLLEGE, priority 2021, dated 2024).
Entries after “also recorded” stand apart in the source; their conditions may differ.

Columns and labels:
[1] = molecular target: E. coli BL21 overexpressing ClbP (Escherichia coli, UniProt Q0P7K6); experiment: ClbP fluorescence activity assay (live cells); type: cell-based
Protocol: ClbP fluorescence activity assay (live cells). One 5 mL starter culture each E. coli BL21 pET-29b-ClbP and pET-29b-ClbP-S95A were inoculated from frozen stocks and grown overnight at 37° C. in LB medium supplemented with 50 μg/ml kanamycin (LB+kan). Overnight cultures were diluted 1:100 in fresh LB+kan and incubated at 37° C. to an OD600 of 0.3, at which point protein expression was induced by the addition of 500 μM isopropyl β-D-1-thiogalactopyranoside (IPTG) and cultures were moved to 15° C. for 4 hours. Cultures were then aliquoted in a black 384-well plate and the appropriate concentration of inhibitor was added as a DMSO stocks to a final concentration of 1% DMSO in a volume of 30 μL. Reactions were initiated by the addition of 10 μL of LB+kan+IPTG containing the fluorogenic substrate (final concentration=100 μM). Plastes were incubated at 25° C. with intermittent shaking while taking regular fluorescence measurements in a Bio-Tek Synergy HTX multimode plate reader with an excitation filter of 360/40 nm and an emission filter of 440/20 nm. “% activity” was determined based on the formula above using RFU measurements after 7 hours.

Klebsiella oxytoca = experiment: Bacterial MIC assay (broth dilution); type: cell-based; conditions: 15 h, read-out: MICs by compound
Lactobacillus rhamnosus = experiment: Bacterial MIC assay (broth dilution); type: cell-based; conditions: Lacticaseibacillus rhamnosus, 15 h, read-out: MICs by compound
[2] = test system: a variety of bacterial strains from common gut phyla, including E. coli; experiment: Turbidity MIC assay, all strains together; type: cell-based; conditions: Escherichia coli; all strains tested; upper limit tested 200 μM; read-out: MICs in liquid culture
Text: Compound 3 is an inhibitor of colibactin-associated genotoxicity. Since colibactin is produced in the context of the gut microbiota, it is essential to understand how 3 can affect other members of this community and whether it remains an effective inhibitor under these conditions. […] A turbidity assay was used to determine minimum inhibitory concentrations (MICs) in liquid culture of 1-4 against a variety of bacterial strains from common gut phyla, including E. coli (Table 3).
MICs of compounds against different bacterial species were determined using a modified version of a broth microdilution protocol which has been previously reported.^1 Briefly, cultures of each species indicated were inoculated from frozen stocks in deoxygenated Wilkins-Chalgren Anaerobic Medium (WCAM) inside of an anerobic chamber with an 92.5% N2/5% CO2/2.5% H2 atmosphere. Cultures were grown for 24-48 hours in a 37° C. incubator at which point an OD600-measurement was taken for each culture and was accordingly diluted in fresh WCAM to an equivalent of OD600=0.01. Diluted cultures were then distributed into the wells of a clear, flat-bottom 384-well plate and the compound of interest was added to a final DMSO concentration of 2% (or DMSO only for positive controls). […] mineral oil (Millipore Sigma) was deposited on top of the cultures and plates were covered with a clear adhesive plate seal. Plates were incubated at 37° C. for 16 hours, at which point the OD600 of all wells was recorded on a SpectraMax M2 plate reader (Molecular Devices).

[3] = test system: serine hydrolases in HEK293T cell lysates; experiment: Gel-based ABPP with fluorophosphonate probe (FP); type: binding, human; conditions: inhibitor up to 100 μM
Text: To further explore other possible targets of inhibitors 1-4, an activity-based protein profiling (ABPP) approach was used to assay their activity against a wide variety of serine hydrolases in bacterial and mammalian proteomes. […] One limitation of this assay is that ClbP is not labeled by the FP probe, so it cannot be observed as a reference for binding. Any other proteins which evade labeling by FP would also not be detected in this assay.
Activity-Based Protein Profiling. Bacterial or mammalian cell lysates were normalized to 1 mg/mL protein concentrations in PBS using the DC protein assay (Bio-Rad). 50 μL aliquots of lysates were incubated with compounds at the indicated concentrations (1 μL of a 50X stock in DMSO) for 30 minutes at room temperature and subsequently labeled with 5 μM of fluorophosphonate-PEG(4)-biotin probe (1 μL of a 50X stock in DMSO, synthesized as previously reported)^56 for 1 hour at room temperature. The reactions were mixed with 50 μL of 2X SDS protein loading buffer, boiled for 10 minutes at 95° C., and separated by SDS-PAGE. The labeled proteins were detected by IRdye-conjugated streptavidin (Li-Cor) and visualized using the GellOdyssey™ Imaging System (Li-Cor).^56

[4] = test system: Penicillin Binding Proteins (PBPs); experiment: Gel-based ABPP with BOCILLIN-FL probe
Text: To further explore the specificity of our inhibitors, another ABPP assay was used in which the broad-spectrum FP probe was replaced with a specific probe, BOCILLIN-FL, which targets penicillin binding proteins (PBPs) using a β-lactam warhead. This probe was chosen because of ClbP's homology to AmpC β-lactamases. Since PBPs are targeted by β-lactams, it was reasoned that the similarity of their binding pockets would mean a greater chance of identifying a secondary target among this family of enzymes.

HeLa cells = experiment: HeLa cell survival assay; type: cell-based, human; conditions: all concentrations tested
Protocol: HeLa cells were maintained as described in the General Tissue Culture Methods section. After trypsinization and counting, cells were distributed in to the wells of a 96-well plate with media containing the indicated concentration of the synthetic compound and 1% DMSO (or DMSO alone) at 5000 cells per well. After 20 hours, cell viability was determined using the CellTiter-Glo® 3D Cell Viability Assay kit (Promega) following the manufacturer's instructions and measuring luminescence on a Bio-Tek Synergy HTX™ multimode plate reader.

[5] = test system: purified plasmid DNA incubated with pks+ E. coli; experiment: Plasmid DNA crosslinking, denaturing gel electrophoresis
Protocol: In addition to blocking the metabolic indicators of colibactin biosynthesis, it was also assessed whether 3 could inhibit the genotoxic effects of colibactin on human cells at physiologically accessible concentrations. A previously described infection assay with HeLa cells and pks+E. coli which was modified to include a 1-hour preincubation of the inhibitor with the E. coli as well as inclusion of the inhibitor in the infection medium was used. […] Treatment with 3 was able to completely block this effect at concentrations as low as 5 nM (FIG. 4). It was also confirmed that 3 is not cytotoxic to human cell lines at concentrations up to 10 μM. […] In order to directly assess the impacts of 3 on colibactin's DNA crosslinking activity, purified plasmid DNA was incubated with pks^+ E. coli, then subjected to gel electrophoresis under denaturing conditions.

Question: For CC1(C)OB([C@@H](CC(N)=O)NC(=O)CCCc2ccccc2)OC1(C)C [Compound 3], which IC50 [1] is on record?
Answer: 18.3 nM

Question: What about the MIC (Klebsiella oxytoca) of the same molecule?
Answer: > 200 µM

Question: What about the MIC (Lactobacillus rhamnosus) of the same molecule?
Answer: > 200 µM

Question: What about the MIC [2] of the same molecule?
Answer: > 200 µM

Question: What about the “change in protein labeling by FP probe” value [3] of the same molecule?
Answer: does not identify any significant targets

Question: And the “competitive binding to BOCILLIN-FL labeled PBPs” value ([4]; B. cereus ATCC14579 lysate)?
Answer: none of these PBPs showed any binding; also recorded: no competitive binding

Question: And the “competitive binding to BOCILLIN-FL labeled PBPs” value ([4]; E. coli NC101 lysate)?
Answer: none of these PBPs showed any binding; also recorded: no competitive binding

Question: And the “concentration without cytotoxicity to human cell lines” value (HeLa cells)?
Answer: > 10 µM

Question: What about the DNA crosslinking activity [5] of the same molecule?
Answer: can suppress DNA crosslinking activity
